“Also recorded” adds a separate entry of the source.
B1: delta-like 1: Notch ligand (R&D) (protein, UniProt O00548 18-723, looked up)
Delta-like protein 1: QVWSSGVFELKLQEFVNKKGLLGNRNCCRGGAGPPPCACRTFFRVCLKHYQASVSPEPPCTYGSAVTPVLGVDSFSLPDGGGADSAFSNPIRFPFGFTWPGTFSLIIEALHTDSPDDLATENPERLISRLATQRHLTVGEEWSQDLHSSGRTDLKYSYRFVCDEHYYGEGCSVFCRPRDDAFGHFTCGERGEKVCNPGWKGPYCTEPICLPGCDEQHGFCDKPGECKCRVGWQGRYCDECIRYPGCLHGTCQQPWQCNCQEGWGGLFCNQDLNYCTHHKPCKNGATCTNTGQGSYTCSCRPGYTGATCELGIDECDPSPCKNGGSCTDLENSYSCTCPPGFYGKICELSAMTCADGPCFNGGRCSDSPDGGYSCRCPVGYSGFNCEKKIDYCSSSPCSNGAKCVDLGDAYLCRCQAGFSGRHCDDNVDDCASSPCANGGTCRDGVNDFSCTCPPGYTGRNCSAPVSRCEHAPCHNGATCHERGHRYVCECARGYGGPNCQFLLPELPPGPAVVDLTEKLEGQGGPFPWVAVCAGVILVLMLLLGCAAVVVCVRLRLQKHRPPADPCRGETETMNNLANCQREKDISVSIIGATQIKNTNKKADFHGDHSADKNGFKARYPAVDYNLVQDLKGDDTAVRDAHSKRDTKCQPQGSSGEEKGTPTTLRGGEASERKRPDSGCSTSKDTKYQSVYVISEEKDECVIATEV
B2: MK: 13-kDa cysteine-rich secreted heparin-binding growth and differentiation factor; recombinant protein (Millipore) (protein, UniProt P21741 21-143, looked up)
Midkine: VAKKKDKVKKGGPGSECAEWAWGPCTPSSKDCGVGFREGTCGAQTQRIRCRVPCNWKKEFGADCKYKFENWGACDGGTGTKVRQGTLKKARYNAQCQETIRVTKPCTPKTKAKAKAKKGKGKD
B3: Noggin: BMP antagonist, recombinant protein (Peprotech) (protein, UniProt Q13253 28-232, looked up)
Noggin: QHYLHIRPAPSDNLPLVDLIEHPDPIFDPKEKDLNETLLRSLLGGHYDPGFMATSPPEDRPGGGGGAAGGAEDLAELDQLLRQRPSGAMPSEIKGLEFSEGLAQGKKQRLSKKLRRKLQMWLWSQTFCPVLYAWNDLGSRFWPRYVKVGSCFSKRSCSVPEGMVCKPSKSVHLTVLRWRCQRRGGQRCGWIPIQYPIISECKCSC

What was measured:
ALK 5, 4, 7 = conditions: Tojo et al. 2005; cited from earlier work
H9 hESCs = test: Feeder-free neural induction on Matrigel, PAX6/Nestin by FACS and immunostaining; format: cell-based, human; conditions: for total H9 hESCs differentiated into PAX6+/Nestin+ cells (FACS): 10 μM inhibitor together with 100 ng/mL MK+DAP
ERK1/2 = test: Western blot of phospho-ERK1/2 (MAPK pathway); format: cell-based, human; conditions: 100 ng/mL, 24 hr
Description: (§1) The signal transduction pathway(s) involved in this highly efficient neural conversion was addressed. The PI3K/MAPK pathways were focused on since MK-induced activation of both pathways has been reported (Kadomatsu et al. Cancer Lett. 204:127-143, 2004; Stoica et al. JBC 277:35990-35998, 2002). Since both pathways are already active in undifferentiated hESCs and necessary for their growth (Bendall et al. Nature 448:1015-1021, 2007; Vallier et al. J. Cell. Sci. 118:4495-4509, 2005; Xu et al. Nat. Methods 2:185-190, 2005), cells were exposed to high concentrations (100 ng/mL) of MK, IGF-1, and FGF-2 for 24 hr and phosphorylation levels of AKT and ERK1/2 were compared (FIG. 4a).
(§2) Cell lysates were prepared in RIPA buffer containing protease and phosphatase inhibitors (Pierce). 4-12% gradient gels (NuPage) were used with Invitrogen's SureLock Mini-Cell and gel-to-membrane transfer was performed with the XCell Blot Module (Invitrogen). The following primary antibodies were used: goat MK (R&D), mouse and rabbit GAPDH (1:1000, Santa Cruz), p-AKT 5473 and total AKT (1:1000, Cell Signaling Technologies), phospho-ERK1/2 and total ERK1/2 (1:1000, Cell Signaling Technologies). The following secondary antibodies were used: donkey anti-mouse Alexa 680 (Invitrogen), donkey anti-rabbit Alexa 680, donkey anti-rabit 800 (Rockland), donkey anti-mouse 800. Western Blots were imaged using the Odyssey Infrared Imaging System (LI-COR).

hESCs (H9 cells) = test: Neural tube-like (NTL) structure formation by hESC colonies grown on HS27 fibroblasts; format: cell-based, human; conditions: for NTL structures observed: MK applied together with FGF-2, or MK replaced by the factor
Protocol: To confirm that increased MK levels correlate with differentiation, EBs from hESCs and HS27-iPSCs were generated and quantitatively analyzed MK expression. […] To test if exogenously added MK may display neural-inducing activities, hESCs were cultured in the presence of recombinant MK protein using two different assays. First, manually passaged hESCs (H9 cells) were plated on HS27 fibroblasts and grown in the presence of 100 ng/mL MK. […] These NTLs expressed the typical neuroectodermal markers PAX6 and Nestin (FIG. 1d) and, when single NTLs were manually picked under microscopic guidance and attached to laminin-coated dishes, neuronal cells started migrating out from these structures (FIG. 9). […] Second, MK-induced differentiation was investigated under feeder-free conditions. Manually passaged H9-hESCs cells were plated on Matrigel and grown in 100 ng/mL MK for 6 days.
Human ESC lines H1, H9, H14, BG02, HSF-6, and HUES13 were cultured on matrigel (BD) or Geltrex (Invitrogen) in the presence of MEF-CM (DMEM/F12, 20% Knockout Serum Replacement, non-essential amino acids, 2-mercaptoethanol). In some experiments, hESCs and iPSCs were cultured in mTeSR medium (Stem Cell Technologies). Neural cells were grown in N2B27 supplement (Gibco). The following reagents were used: MK (Millipore), FGF-2 (NIH/NCI), BDNF (Peprotech), GDNF (Peprotech), FGF-8 (Peprotech), SHH (Peprotech and R&D Systems), Noggin (Peprotech), IGF-1 (Peprotech), DLL1, DLL4, Jagged1 (R&D), all-trans RA (Sigma), Forskolin (Sigma), A 81-01 (Tocris), Dorsomorphin (Sigma), PNU-74654 (Sigma), Rapamycin (Sigma), LY294002 (Tocris), U0126 (Tocris).
Cells were fixed with 4% paraformaldehyde and stained with following antibodies: anti-mouse OCT-4 (1:200, Santa Cruz, C-10), rabbit Nanog (1:200, Santa Cruz, H-155), mouse TRA 1-81 (1:200, Millipore), alpha-Fetoprotein (1:50, Santa Cruz, AFP-11), goat MK (1:100, R&D Systems), goat SOX17 (1:100, R&D), goat Brachyury (1:100, R&D), PAX6 (1:300, Covance), mouse and rabbit Tuj1 (1:500, Covance), goat OTX2 (1:1000, Neuromics), mouse Nestin (1:400, Millipore), rabbit OLIG2 (1:50, Santa Cruz, H-68), mouse HB9 (1:50, 81.5C10, Developmental Studies Hybridoma Bank), rabbit GFAP (1:1000, DAKO), rabbit and sheep TH (1:500, Pel-Freez), rabbit PTPz (1:50, Santa Cruz), goat ALK (1:50, Santa Cruz). Light-microscopic immunostaining for PAX6 with the DAB method was performed according to the manufacturer (Vector).

AKT = test: Western blot of AKT phosphorylation at Serine 473 (PI3K pathway); format: cell-based, human; conditions: 100 ng/mL, 24 hr
Description: as §1
as §2, with “Western Blots were imaged using the Odyssey Infrared Imaging System (LI-COR).” left out

Molecule	MAPK activation (ERK1/2 phosphorylation level) (ERK1/2)	NTL structures observed (hESCs (H9 cells))	other results
Cc1cccc(-c2nn(C(=S)Nc3ccccc3)cc2-c2ccnc3ccccc23)n1 [A81-01]	–	–	potency relative to SB431542 (another inhibitor of ALK 5, 4, 7) (ALK 5, 4, 7): more potent
O=c1cc(N2CCOCC2)oc2c(-c3ccccc3)cccc12 [LY294002]	–	–	total H9 hESCs differentiated into PAX6+/Nestin+ cells (FACS) (H9 hESCs): ~95%
N#CC(=C(/N)Sc1ccccc1N)/C(C#N)=C(\N)Sc1ccccc1N [U0126]	–	–	total H9 hESCs differentiated into PAX6+/Nestin+ cells (FACS) (H9 hESCs): ~95%; PAX6 expression / neuralization in MK+DAP-treated hESC cultures (H9 hESCs; 40 μM inhibitor together with 100 ng/mL MK+DAP): dramatically reduced; also recorded: disruption of neuralization
FGF-2: fibroblast growth factor 2 (NIH/NCI)	significantly stronger activation	–	–
IGF-1: insulin-like growth factor 1 (Peprotech)	moderate level	never observed	signaling through PI3K pathway (phosphorylation level of AKT) (AKT): signal through both the PI3K pathway and the MAPK pathway
Jagged1: Notch ligand (R&D)	–	never observed	–
delta-like 4: Notch ligand (R&D)	–	never observed	–
B1	–	never observed	–
B2	moderate level	–	solitary growing hESC colonies directly differentiated into neural tube-like (NTL) structures (hESCs (H9 cells); 100 ng/mL MK, within 6-8 days): 5-10%; total cells differentiated into PAX6+ cells (H9 hESCs; 100 ng/mL MK alone, Matrigel, feeder-free, 6 days, FACS and immunostainings): 20-40%; signaling through PI3K pathway (phosphorylation level of AKT) (AKT): signal through both the PI3K pathway and the MAPK pathway
B3	–	never observed	–

Reference: patent US20110002897A1, “DIRECTED DIFFERENTIATION OF STEM CELLS” (Burnham Institute for Medical Research, priority 2009, published 2011)
